Test results reported in the Deep4Chem optical property database.
Values joined by “and” are separate entries in the source; they are usually repeats but may differ in a detail not shown here. Equal values may be shown once. Each block holds one compound with its values, some of them ahead of it.

Test: solvent given as SMILES

SMILES: CON(OC)c1cc2c3cc(-c4c(C)cc(C)cc4C)cc4c5cc(-c6c(C)cc(C)cc6C)cc6c7cc(B(c8c(C)cc(C)cc8C)c8c(C)cc(C)cc8C)cc8c9cc(-c%10c(C)cc(C)cc%10C)cc%10c%11cc(-c%12c(C)cc(C)cc%12C)cc%12c(c1)c2c1c(c43)c(c65)c(c78)c(c9%10)c1c%11%12
absorption maximum (in C1CCOC1): 452 nm | absorption maximum (in CC(C)=O): 445 nm | absorption maximum (in CCCCCC): 453 nm | absorption maximum (in Cc1ccccc1): 461 nm | absorption maximum (in ClC(Cl)Cl): 449 nm | absorption maximum (in ClCCl): 450 nm

SMILES: CC[n+]1c(C=C2C(=O)C(C=C3N(C)c4ccc(Cl)cc4C3(C)C)=C2[O-])[se]c2ccccc21
absorption maximum (in CO): 644 nm | absorption maximum (in ClC(Cl)Cl): 655 nm | absorption maximum (in ClCCl): 659 nm

SMILES: O=C(Cc1ccccc1)OCc1ccc2c3cccc4cccc(c5cccc1c52)c43
absorption maximum (in CCO): 438 nm

SMILES: Cc1ccc(-c2[nH]c(=O)n3c2-c2ccccc2C3=O)c(O)c1
absorption maximum (in CC#N): 393 nm | absorption maximum (in CO): 397 nm | absorption maximum (in ClCCl): 393 nm

SMILES: CC(C)(C)NC(=O)c1cccc2ccc3c4ccccc4c4ccccc4c3c12
absorption maximum (in ClCCl): 332 nm

SMILES: c1ccc([B-]2(c3ccccc3)Oc3ccc4ccccc4c3-c3c4ccccc4cc[n+]32)cc1
absorption maximum (in Cc1ccccc1): 427 nm

SMILES: c1ccc(-c2nc(-c3nc(-c4ccccc4)c(-c4ccccc4)o3)oc2-c2ccccc2)cc1
absorption maximum (in C1COCCO1): 343 nm

SMILES: CCC1=C(C)C2=Cc3c4ccccc4c4n3[B-](c3cc[n+](C)cc3)(Oc3ccccc3-4)[N+]2=C1C (stereo not drawn)
absorption maximum (in CO): 621 nm | absorption maximum (in CS(C)=O): 626 nm

SMILES: COc1cccc2cc(C#N)c(=N)oc12
absorption maximum (in ClCCl): 364 nm

SMILES: COc1cc(Br)cc2cc(-c3cc4cc(Br)cc(OC)c4oc3=O)oc12
absorption maximum (in CC#N): 353 nm | absorption maximum (in CCOC(C)=O): 355 nm | absorption maximum (in CS(C)=O): 359 nm | absorption maximum (in Cc1ccccc1): 360 nm | absorption maximum (in O): 359 nm

SMILES: C[Si]1(C)c2ccc(-c3ccc(-c4cccs4)s3)cc2C=Cc2cc(-c3ccc(-c4cccs4)s3)ccc21
absorption maximum (in ClCCl): 398 nm

SMILES: COc1ccc(C2=C(c3ccc(F)cc3)C(c3ccccc3)=[N+]3C2=Nc2c(-c4ccc(OC)cc4)c(-c4ccc(F)cc4)c(-c4ccccc4)n2[B-]3(F)F)cc1
absorption maximum (in Cc1ccccc1): 653 nm

SMILES: CCCC1=Cc2nc1ccc1[nH]c(cc1CCC)c1nc(c(NC(C)=O)cc3[nH]c2cc3CCC)C(CCC)=C1
absorption maximum (in Cc1ccccc1): 639 nm

SMILES: CC1(C)C2=C(c3ccccc31)S(=O)(=O)c1ccccc12
absorption maximum (in ClCCl): 355 nm

SMILES: C=CCNc1ccc2ccc3oc4cc(=O)ccc-4nc3c2c1
absorption maximum (in CC#N): 537 nm | absorption maximum (in CCO): 531 nm | absorption maximum (in ClCCl): 539 nm | absorption maximum (in O): 522 nm

SMILES: CC(C)(C)c1cc(-c2c3cc(c(-c4cc(C(C)(C)C)cc(C(C)(C)C)c4)c4ccc([nH]4)c(-c4ccc(Br)cc4)c4nc(c(-c5ccc(Br)cc5)c5ccc2[nH]5)C=C4)N=C3)cc(C(C)(C)C)c1
absorption maximum (in ClCCl): 726 nm

SMILES: O=C1CC(c2ccc(C(F)(F)F)cc2)c2c(c3ccccc3c3nc4ccccc4nc23)O1 (stereo not drawn)
absorption maximum (in ClC(Cl)Cl): 409 nm

SMILES: CC(C)[Si](C#Cc1c2nc3ccccc3nc2c(C#C[Si](C(C)C)(C(C)C)C(C)C)c2nc3ccccc3nc12)(C(C)C)C(C)C
absorption maximum (in CCCCCC): 681 nm

SMILES: CN(C)c1ccc2c3c(ccc2c1)C(=O)CCC3
absorption maximum (in C1CCCCC1): 347 nm | absorption maximum (in CC#N): 356 nm | absorption maximum (in CC(C)O): 368 nm | absorption maximum (in CCC(C)=O): 356 nm | absorption maximum (in CCO): 369 nm | absorption maximum (in CCOC(C)=O): 353 nm | absorption maximum (in CS(C)=O): 363 nm | absorption maximum (in Cc1ccccc1): 353 nm | absorption maximum (in ClCCl): 358 nm | absorption maximum (in Clc1ccccc1): 357 nm

SMILES: CN(C)c1ccccc1
absorption maximum (in C1CCCCC1): 293.94 nm

SMILES: COc1cc2oc(=O)c3c4ccc(N(C)C)cc4c4ccc5cccc6c(c1)c2c3c4c56
absorption maximum (in C1CCOC1): 480 nm

SMILES: COC(=O)C1=C(C(=O)OC)C2(c3ccccc3-c3c(Br)cc(Br)cc32)C2(/C=C/c3ccccc3)c3cc(OC)c(OC)cc3CCN12 (stereo not drawn)
absorption maximum (in ClCCl): 328 nm

SMILES: Clc1ccc(/C=C/c2ccncn2)cc1
absorption maximum (in ClCCl): 310 nm

SMILES: CC1(C)CC(=O)C2=C(C1)Oc1ccc3ccccc3c1C2c1ccccn1 (stereo not drawn)
absorption maximum (in C1CCOC1): 275 nm | absorption maximum (in C1COCCO1): 274 nm | absorption maximum (in CC#N): 275 nm | absorption maximum (in CCCCCCC): 274 nm | absorption maximum (in CCO): 274 nm | absorption maximum (in CO): 275 nm | absorption maximum (in O): 264 nm

SMILES: Cc1cc(C)cc(NC(=O)c2sc(Br)nc2C)c1
absorption maximum (in C1CCOC1): 293.4 nm | absorption maximum (in CC#N): 285 nm | absorption maximum (in CCCCCC): 280.5 nm | absorption maximum (in CCOC(C)=O): 282.5 nm | absorption maximum (in CN(C)C=O): 285.3 nm | absorption maximum (in CO): 271.5 nm | absorption maximum (in CS(C)=O): 283.1 nm | absorption maximum (in ClC(Cl)Cl): 278 nm

SMILES: COC(=O)C(NC(=O)OC(C)(C)C)c1ccc2oc(-c3cc(OC)ccc3OC)nc2c1 (stereo not drawn)
absorption maximum (in CC1CCCCC1): 332 nm | absorption maximum (in CC#N): 333 nm | absorption maximum (in CO): 337 nm

SMILES: c1ccc(-c2nc(-c3ccccc3)nc(-c3ccc(-c4ccc5c(c4)C4(c6ccccc6-c6ccccc64)c4ccccc4N5c4ccccc4)cc3)n2)cc1
absorption maximum (in c1cc(-c2cccc(-n3c4ccccc4c4ccccc43)c2)cc(-n2c3ccccc3c3ccccc32)c1): 387.78 nm

SMILES: COC(=O)c1cc(=O)n(C)c2cc(-c3ccc(OC)cc3)sc12
absorption maximum (in C1CCOC1): 402 nm | absorption maximum (in CC#N): 396 nm | absorption maximum (in CN(C)C=O): 402 nm | absorption maximum (in CO): 396 nm | absorption maximum (in CS(C)=O): 404 nm | absorption maximum (in Cc1ccccc1): 402 nm

SMILES: COc1ccc(N2c3ccc4ccccc4c3-c3c4ccccc4cc[n+]3[B-]2(c2ccccc2)c2ccccc2)cc1
absorption maximum (in Cc1ccccc1): 520 nm

SMILES: CC[n+]1nc2cc3c4c(c2c2ccccc21)CCCN4CCC3
absorption maximum (in O): 493 nm

SMILES: [O-]c1ccc2ccccc2c1
absorption maximum (in O): 346 nm

SMILES: CCN(CC)c1ccc2cc(/C=C/C3=C4CC/C(=C\c5cc6ccc(N(CC)CC)cc6oc5=O)C4=[O+][B-](F)(F)O3)c(=O)oc2c1
absorption maximum (in C1COCCO1): 629 nm | absorption maximum (in CC#N): 655 nm | absorption maximum (in CC(C)=O): 653 nm | absorption maximum (in CCOC(C)=O): 636 nm | absorption maximum (in CN(C)C=O): 673 nm | absorption maximum (in CS(C)=O): 690 nm | absorption maximum (in Cc1ccccc1): 629 nm | absorption maximum (in ClC(Cl)Cl): 644 nm | absorption maximum (in ClCCl): 653 nm

SMILES: Cc1ccc(C2=C3C=CC(/C=C/c4ccccc4)=[N+]3[B-](F)(F)n3c(Cl)ccc32)cc1
absorption maximum (in C1CCCCC1): 569 nm | absorption maximum (in C1CCOC1): 568 nm | absorption maximum (in C1COCCO1): 569 nm | absorption maximum (in CCOC(C)=O): 565 nm | absorption maximum (in CO): 564 nm | absorption maximum (in Cc1ccccc1): 572 nm | absorption maximum (in ClC(Cl)Cl): 571 nm

SMILES: CC(C)(C)c1ccc(-c2sc3c(-c4ccc(C(C)(C)C)cc4)c4n(c3c2-c2ccc(C(C)(C)C)cc2)[B-](F)(F)[N+]2=Cc3c(-c5ccc(C(C)(C)C)cc5)c5sc(-c6ccc(C(C)(C)C)cc6)c(-c6ccc(C(C)(C)C)cc6)c5n3[B-](F)(F)[N+]2=C4)cc1
absorption maximum (in CC#N): 574 nm | absorption maximum (in CCCCCC): 591 nm | absorption maximum (in CN(C)C=O): 584 nm | absorption maximum (in Cc1ccccc1): 596 nm | absorption maximum (in ClCCl): 591 nm

SMILES: c1ccc(-p2c(-c3cccs3)cc3ccccc32)cc1 (stereo not drawn)
absorption maximum (in C1CCOC1): 350 nm

SMILES: C(=C\c1c2ccccc2cc2ccccc12)/c1ccc2ccccc2c1
absorption maximum (in CC1CCCCC1): 386 nm | absorption maximum (in CC#N): 387 nm

SMILES: CC1=CC(C)=[N+]2C1=C(c1ccc(N(C)C)cc1)c1c(C)cc(C)n1[B-]2(F)F
absorption maximum (in C1CCOC1): 499 nm | absorption maximum (in CC#N): 496 nm | absorption maximum (in CC(=O)C(C)(C)C): 496 nm | absorption maximum (in CC(C)=O): 496 nm | absorption maximum (in CCCCCC): 500 nm | absorption maximum (in CCOC(C)=O): 498 nm | absorption maximum (in CO): 500 nm and 492 nm

Continued, values first:

absorption maximum (in CS(C)=O): 316 nm
SMILES: c1ccc2[nH]c(-c3cc(-c4nc5ccccc5[nH]4)cc(-c4nc5ccccc5[nH]4)c3)nc2c1

absorption maximum (in ClCCl): 368 nm
SMILES: C[Si]1(C)O[Si](C)(C)c2cc3nc4ccccc4c(-c4ccccc4)c3cc2[Si](C)(C)O1

absorption maximum (in CCCCCC): 630 nm
SMILES: CC1=[N+]2C(=C(c3ccccc3)c3c4c5ccccc5c5ccccc5c4c(C)n3[B-]2(F)F)c2c1c1ccccc1c1ccccc21

absorption maximum (in ClCCl): 503 nm
SMILES: c1ccc(C2=C(c3ccccc3)c3cccc4c3c(cc3nc5c(-c6ccccc6)ccc(-c6ccccc6)c5nc34)O2)cc1

absorption maximum (in CCO): 591 nm | absorption maximum (in ClC(Cl)Cl): 602 nm | absorption maximum (in O): 594 nm
SMILES: CCN(CC)c1ccc2c(c1)oc(=O)c1c(-c3ccccc3C(=O)O)c3ccc(=[N+](CC)CC)cc-3oc12

absorption maximum (in C1CCOC1): 365 nm
SMILES: CCCCC1(CCCC)c2cc(C#Cc3ccc(/C=C(\C)c4ccccc4)cc3)ccc2-c2ccc(C#Cc3ccc(/C=C(\C)c4ccccc4)cc3)cc21

absorption maximum (in CC#N): 439 nm
SMILES: Cc1cccc2nc3c(=O)n(C)c(=O)nc-3n(C)c12

absorption maximum (in CC#N): 355 nm
SMILES: O=C1O/C(=C\c2cccs2)c2ccccc21

absorption maximum (in CS(C)=O): 404 nm
SMILES: N#Cc1c(/C=C/c2ccc(N(c3ccccc3)c3ccccc3)cc2)cc(-c2cccs2)cc1N1CCCCC1

absorption maximum (in C1CCOC1): 363 nm | absorption maximum (in CC#N): 361 nm | absorption maximum (in CCCCCC): 359 nm
SMILES: CC1=N/C(=C\c2cc(N(C)C)ccc2C#N)C(=O)N1C

absorption maximum (in ClCCl): 290 nm
SMILES: O=S(=O)(c1ccc2c(c1)c1ccccc1n2-c1ccccc1)c1ccc2c(c1)c1ccccc1n2-c1ccccc1

absorption maximum (in CC#N): 393 nm | absorption maximum (in CO): 395 nm | absorption maximum (in ClCCl): 399 nm
SMILES: Cc1cc(O)c(-c2[nH]c(=O)n3c2-c2ccccc2C3=O)cc1Cl

absorption maximum (in CC#N): 398 nm | absorption maximum (in ClCCl): 402 nm
SMILES: COC(=O)c1cc(=O)n(C)c2cc(-c3ccc4c(c3)OCCO4)sc12

absorption maximum (in O): 371 nm
SMILES: Cc1cc(/N=C/c2cc(S(=O)(=O)[O][Na])ccc2O)c(/N=C/c2cc(S(=O)(=O)[O][Na])ccc2O)cc1C

absorption maximum (in ClC(Cl)Cl): 395 nm
SMILES: CCCCCCN1C(=O)c2cccc3c(-c4ccc(-c5ccc6c7c(cccc57)C(=O)N(CCCCCC)C6=O)s4)ccc(c23)C1=O

absorption maximum (in CC#N): 357 nm
SMILES: O=C(O)c1ccccc1-c1nc(-c2ccccc2)c2ccccn12

absorption maximum (in C1CCOC1): 546 nm
SMILES: CC1=CC2=C3C(=C4C(C)=C(c5ccc(-c6nc(-c7ccccc7)c(-c7ccccc7)[nH]6)cc5)S[C@@]4(C)[C@]2(C)S1)C(F)(F)C(F)(F)C3(F)F

absorption maximum (in ClC(Cl)Cl): 425 nm
SMILES: Fc1cccc(C2=Cc3ccc4ccccc4[n+]3[B-](F)(F)O2)c1
